According to ChEMBL document CHEMBL4507282, “Data for DCP probe BI-1950” (2021):

What was measured:
Conditions in all cases: Compound concentration 1000.0 nM
[1] = molecular target: Fibroblast growth factor receptor 4 (Homo sapiens) (UniProt P22455)
[2] = test system: Fibroblast growth factor receptor 3 (Homo sapiens), P22607 [G697C]
[3] = molecular target: Myosin light chain kinase 2, skeletal/cardiac muscle (Homo sapiens) (UniProt Q9H1R3)
[4] = molecular target: Ribosomal protein S6 kinase alpha-1 (Homo sapiens) (UniProt Q15418)
[5] = test system: Epidermal growth factor receptor (Homo sapiens), P00533 [T790M]
[6] = test system: Tyrosine-protein kinase ABL1 (Homo sapiens), P00519 [T315I]
[7] = molecular target: Cyclin-G-associated kinase (Homo sapiens) (UniProt O14976)
[8] = molecular target: Cyclin-dependent kinase 2 (Homo sapiens) (UniProt P24941)
[9] = molecular target: Serine/threonine-protein kinase DCLK1 (Homo sapiens) (UniProt O15075)
[10] = molecular target: Mitogen-activated protein kinase kinase kinase 2 (Homo sapiens) (UniProt Q9Y2U5)
[11] = test system: Epidermal growth factor receptor (Homo sapiens), P00533 [G719C]
[12] = molecular target: Mitogen-activated protein kinase kinase kinase 1 (Homo sapiens) (UniProt Q13233)
[13] = test system: Tyrosine-protein kinase ABL1 (Homo sapiens), P00519 [F317I]
[14] = test system: Tyrosine-protein kinase ABL1 (Homo sapiens), P00519 [F317L]
[15] = molecular target: Death-associated protein kinase 2 (Homo sapiens) (UniProt Q9UIK4)
[16] = molecular target: Serine/threonine-protein kinase PLK2 (Homo sapiens) (UniProt Q9NYY3)
[17] = molecular target: Casein kinase I isoform delta (Homo sapiens) (UniProt P48730)
[18] = molecular target: Ribosomal protein S6 kinase alpha-5 (Homo sapiens) (UniProt O75582)
[19] = molecular target: Epidermal growth factor receptor (Homo sapiens) (UniProt P00533)
[20] = molecular target: Serine/threonine-protein kinase B-raf (Homo sapiens) (UniProt P15056)
[21] = molecular target: Testis-specific serine/threonine-protein kinase 3 (Homo sapiens) (UniProt Q96PN8)
[22] = molecular target: Serine/threonine-protein kinase WNK1 (Homo sapiens) (UniProt Q9H4A3)
[23] = molecular target: Activin receptor type-2A (Homo sapiens) (UniProt P27037)
[24] = molecular target: Casein kinase I isoform epsilon (Homo sapiens) (UniProt P49674)
[25] = molecular target: Serine/threonine-protein kinase 36 (Homo sapiens) (UniProt Q9NRP7)
[26] = molecular target: Atypical kinase COQ8A, mitochondrial (Homo sapiens) (UniProt Q8NI60)
[27] = molecular target: Serine/threonine-protein kinase Nek3 (Homo sapiens) (UniProt P51956)
[28] = test system: Epidermal growth factor receptor (Homo sapiens), P00533 [L858R,T790M]
[29] = molecular target: Insulin-like growth factor 1 receptor (Homo sapiens) (UniProt P08069)
[30] = test system: ALK tyrosine kinase receptor (Homo sapiens), Q9UM73 [L1196M]
[31] = molecular target: Ephrin type-A receptor 3 (Homo sapiens) (UniProt P29320)
[32] = molecular target: Ribosomal protein S6 kinase beta-1 (Homo sapiens) (UniProt P23443)
[33] = molecular target: Serine/threonine-protein kinase Chk2 (Homo sapiens) (UniProt O96017)
[34] = molecular target: Mitogen-activated protein kinase kinase kinase 9 (Homo sapiens) (UniProt P80192)
[35] = molecular target: Activated CDC42 kinase 1 (Homo sapiens) (UniProt Q07912)
[36] = molecular target: Phosphorylase b kinase regulatory subunit alpha, liver isoform (Homo sapiens) (UniProt P46019)
[37] = test system: Mast/stem cell growth factor receptor Kit (Homo sapiens), P10721 [L576P]
[38] = molecular target: Activin receptor type-1-like (Homo sapiens) (UniProt P37023)
[39] = molecular target: Homeodomain-interacting protein kinase 1 (Homo sapiens) (UniProt Q86Z02)
[40] = molecular target: Cyclin-dependent kinase 4 (Homo sapiens) (UniProt P11802)
[41] = molecular target: AP2-associated protein kinase 1 (Homo sapiens) (UniProt Q2M2I8)

Measured: residual activity

Ephrin type-A receptor 3 (Homo sapiens), sequence (P29320 whole entry): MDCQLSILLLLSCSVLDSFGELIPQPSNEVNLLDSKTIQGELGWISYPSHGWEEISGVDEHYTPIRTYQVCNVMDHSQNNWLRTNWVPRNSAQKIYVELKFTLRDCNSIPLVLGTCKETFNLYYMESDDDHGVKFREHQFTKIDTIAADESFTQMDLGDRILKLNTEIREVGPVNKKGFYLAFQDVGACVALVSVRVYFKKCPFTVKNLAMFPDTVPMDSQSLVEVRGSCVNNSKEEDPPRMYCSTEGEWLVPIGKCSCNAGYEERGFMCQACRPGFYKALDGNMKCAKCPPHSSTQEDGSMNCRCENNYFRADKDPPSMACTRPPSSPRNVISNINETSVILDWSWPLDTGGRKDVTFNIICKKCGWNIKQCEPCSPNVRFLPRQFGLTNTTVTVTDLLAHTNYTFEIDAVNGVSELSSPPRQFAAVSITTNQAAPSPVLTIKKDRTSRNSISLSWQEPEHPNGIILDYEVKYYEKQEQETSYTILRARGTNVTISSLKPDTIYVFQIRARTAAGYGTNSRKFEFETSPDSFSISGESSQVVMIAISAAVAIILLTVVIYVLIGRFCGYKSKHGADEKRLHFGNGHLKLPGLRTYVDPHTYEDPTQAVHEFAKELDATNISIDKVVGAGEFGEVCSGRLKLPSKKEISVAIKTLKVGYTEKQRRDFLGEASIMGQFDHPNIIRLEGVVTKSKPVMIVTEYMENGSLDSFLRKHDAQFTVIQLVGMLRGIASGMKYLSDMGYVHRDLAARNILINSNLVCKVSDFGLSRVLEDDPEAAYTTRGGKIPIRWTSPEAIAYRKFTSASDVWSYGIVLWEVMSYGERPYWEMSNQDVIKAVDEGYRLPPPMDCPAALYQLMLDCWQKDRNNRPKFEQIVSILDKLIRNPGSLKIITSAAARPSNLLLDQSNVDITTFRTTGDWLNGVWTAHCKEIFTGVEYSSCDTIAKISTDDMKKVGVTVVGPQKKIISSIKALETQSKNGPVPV
Ribosomal protein S6 kinase beta-1 (Homo sapiens), sequence (P23443 whole entry, looked up): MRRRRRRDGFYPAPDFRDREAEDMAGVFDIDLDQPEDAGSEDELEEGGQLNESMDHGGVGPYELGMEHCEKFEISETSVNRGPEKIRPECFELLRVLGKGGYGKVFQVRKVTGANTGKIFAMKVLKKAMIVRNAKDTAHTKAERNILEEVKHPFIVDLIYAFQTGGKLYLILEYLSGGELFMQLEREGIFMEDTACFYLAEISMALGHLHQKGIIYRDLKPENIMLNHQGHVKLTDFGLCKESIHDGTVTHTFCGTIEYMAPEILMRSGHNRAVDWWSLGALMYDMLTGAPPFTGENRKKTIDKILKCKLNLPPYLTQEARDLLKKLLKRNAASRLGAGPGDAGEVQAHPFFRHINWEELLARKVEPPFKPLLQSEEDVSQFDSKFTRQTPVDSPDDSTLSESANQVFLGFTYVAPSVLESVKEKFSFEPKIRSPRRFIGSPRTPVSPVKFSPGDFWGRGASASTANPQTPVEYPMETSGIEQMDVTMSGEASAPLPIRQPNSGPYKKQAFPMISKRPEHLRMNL
Phosphorylase b kinase regulatory subunit alpha, liver isoform (Homo sapiens), sequence (P46019 whole entry, canonical isoform): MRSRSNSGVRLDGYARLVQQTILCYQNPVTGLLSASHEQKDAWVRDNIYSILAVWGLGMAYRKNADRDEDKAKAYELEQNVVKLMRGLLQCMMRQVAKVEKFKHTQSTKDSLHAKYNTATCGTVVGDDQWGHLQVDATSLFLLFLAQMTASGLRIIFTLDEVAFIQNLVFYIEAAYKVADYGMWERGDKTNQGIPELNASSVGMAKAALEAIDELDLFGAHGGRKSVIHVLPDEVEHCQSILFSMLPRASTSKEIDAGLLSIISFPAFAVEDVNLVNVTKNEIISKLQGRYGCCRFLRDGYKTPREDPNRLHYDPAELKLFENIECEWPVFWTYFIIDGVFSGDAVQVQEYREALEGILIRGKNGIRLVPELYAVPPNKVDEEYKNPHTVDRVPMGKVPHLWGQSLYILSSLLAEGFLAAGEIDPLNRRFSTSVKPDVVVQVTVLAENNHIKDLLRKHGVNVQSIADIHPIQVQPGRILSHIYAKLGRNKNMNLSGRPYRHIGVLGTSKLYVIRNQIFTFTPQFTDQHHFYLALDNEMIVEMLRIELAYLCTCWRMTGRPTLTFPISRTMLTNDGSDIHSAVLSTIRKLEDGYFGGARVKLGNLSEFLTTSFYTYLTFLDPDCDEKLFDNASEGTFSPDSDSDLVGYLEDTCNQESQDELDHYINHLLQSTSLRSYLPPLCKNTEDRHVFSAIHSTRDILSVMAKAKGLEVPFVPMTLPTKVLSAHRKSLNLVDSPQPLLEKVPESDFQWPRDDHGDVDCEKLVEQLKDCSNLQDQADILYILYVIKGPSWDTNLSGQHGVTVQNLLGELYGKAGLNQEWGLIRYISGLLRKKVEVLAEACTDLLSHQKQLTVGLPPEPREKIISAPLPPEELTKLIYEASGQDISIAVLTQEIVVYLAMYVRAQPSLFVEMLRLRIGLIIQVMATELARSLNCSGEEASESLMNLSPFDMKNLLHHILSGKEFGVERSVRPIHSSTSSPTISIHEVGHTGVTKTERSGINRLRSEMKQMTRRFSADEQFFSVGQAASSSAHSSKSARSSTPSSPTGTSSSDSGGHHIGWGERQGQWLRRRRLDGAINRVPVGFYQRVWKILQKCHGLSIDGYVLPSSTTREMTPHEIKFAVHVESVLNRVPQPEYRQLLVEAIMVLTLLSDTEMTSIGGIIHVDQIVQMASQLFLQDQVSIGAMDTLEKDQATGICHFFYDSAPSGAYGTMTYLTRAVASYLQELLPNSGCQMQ
Homeodomain-interacting protein kinase 1 (Homo sapiens), sequence (Q86Z02 whole entry, looked up): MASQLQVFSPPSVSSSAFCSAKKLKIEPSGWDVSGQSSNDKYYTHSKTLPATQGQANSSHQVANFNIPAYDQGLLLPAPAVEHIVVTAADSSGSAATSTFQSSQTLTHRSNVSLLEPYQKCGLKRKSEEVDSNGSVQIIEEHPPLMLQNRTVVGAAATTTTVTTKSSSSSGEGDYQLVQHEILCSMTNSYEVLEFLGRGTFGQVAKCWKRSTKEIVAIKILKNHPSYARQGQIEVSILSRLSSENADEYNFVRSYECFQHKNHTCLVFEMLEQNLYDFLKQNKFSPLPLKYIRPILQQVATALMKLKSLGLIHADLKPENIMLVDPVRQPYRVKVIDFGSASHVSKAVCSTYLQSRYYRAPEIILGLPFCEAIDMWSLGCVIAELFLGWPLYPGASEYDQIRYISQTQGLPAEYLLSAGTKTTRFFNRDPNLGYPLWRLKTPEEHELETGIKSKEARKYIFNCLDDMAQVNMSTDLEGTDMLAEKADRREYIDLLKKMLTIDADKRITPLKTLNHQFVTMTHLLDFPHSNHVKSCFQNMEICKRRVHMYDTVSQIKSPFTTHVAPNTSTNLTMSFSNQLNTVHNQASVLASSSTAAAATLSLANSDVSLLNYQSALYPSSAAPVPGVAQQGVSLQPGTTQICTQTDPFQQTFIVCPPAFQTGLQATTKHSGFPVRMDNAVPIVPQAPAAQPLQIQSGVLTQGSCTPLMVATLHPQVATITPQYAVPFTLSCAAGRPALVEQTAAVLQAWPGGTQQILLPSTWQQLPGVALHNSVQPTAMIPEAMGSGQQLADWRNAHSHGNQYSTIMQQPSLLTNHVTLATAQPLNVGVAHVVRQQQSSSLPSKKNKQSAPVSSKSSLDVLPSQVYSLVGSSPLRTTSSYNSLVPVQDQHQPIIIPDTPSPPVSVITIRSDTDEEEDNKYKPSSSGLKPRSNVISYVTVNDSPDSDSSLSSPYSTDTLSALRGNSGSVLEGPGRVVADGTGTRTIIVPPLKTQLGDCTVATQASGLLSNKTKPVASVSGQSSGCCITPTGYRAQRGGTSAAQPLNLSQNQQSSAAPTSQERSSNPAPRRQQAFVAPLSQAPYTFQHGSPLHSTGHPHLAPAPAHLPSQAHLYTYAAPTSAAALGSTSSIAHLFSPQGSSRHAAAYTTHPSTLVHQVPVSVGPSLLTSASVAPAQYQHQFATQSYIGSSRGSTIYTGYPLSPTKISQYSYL
Myosin light chain kinase 2, skeletal/cardiac muscle (Homo sapiens), sequence (Q9H1R3 whole entry): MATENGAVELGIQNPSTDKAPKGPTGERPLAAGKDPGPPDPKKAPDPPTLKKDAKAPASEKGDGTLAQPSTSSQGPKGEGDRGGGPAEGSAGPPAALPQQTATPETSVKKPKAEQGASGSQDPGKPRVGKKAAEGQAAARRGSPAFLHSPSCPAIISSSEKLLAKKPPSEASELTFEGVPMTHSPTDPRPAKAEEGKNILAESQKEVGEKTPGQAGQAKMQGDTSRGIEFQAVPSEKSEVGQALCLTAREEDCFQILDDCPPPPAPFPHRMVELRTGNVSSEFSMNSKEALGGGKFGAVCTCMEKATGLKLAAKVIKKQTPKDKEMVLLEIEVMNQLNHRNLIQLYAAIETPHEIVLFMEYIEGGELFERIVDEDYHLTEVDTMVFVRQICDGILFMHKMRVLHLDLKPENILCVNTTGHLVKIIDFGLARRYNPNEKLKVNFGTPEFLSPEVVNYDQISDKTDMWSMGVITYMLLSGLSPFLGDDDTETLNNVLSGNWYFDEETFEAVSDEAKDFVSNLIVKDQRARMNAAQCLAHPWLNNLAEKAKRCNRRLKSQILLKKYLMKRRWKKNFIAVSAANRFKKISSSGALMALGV
Atypical kinase COQ8A, mitochondrial (Homo sapiens), sequence (Q8NI60 163-647 limits assumed): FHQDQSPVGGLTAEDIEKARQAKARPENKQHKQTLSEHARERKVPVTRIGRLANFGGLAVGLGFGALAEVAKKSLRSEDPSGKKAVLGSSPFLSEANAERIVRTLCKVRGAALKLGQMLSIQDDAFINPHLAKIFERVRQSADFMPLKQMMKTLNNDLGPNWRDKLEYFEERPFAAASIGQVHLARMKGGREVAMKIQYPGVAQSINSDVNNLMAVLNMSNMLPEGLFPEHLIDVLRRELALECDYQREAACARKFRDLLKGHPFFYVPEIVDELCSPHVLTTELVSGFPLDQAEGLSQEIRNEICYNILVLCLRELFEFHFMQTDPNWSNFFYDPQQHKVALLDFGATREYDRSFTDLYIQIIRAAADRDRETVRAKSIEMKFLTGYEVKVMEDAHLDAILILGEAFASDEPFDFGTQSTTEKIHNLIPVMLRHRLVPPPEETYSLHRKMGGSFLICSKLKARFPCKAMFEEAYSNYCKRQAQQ

C[C@H](NC(=O)c1cnc2n1[C@](C)(Cc1ccc(C#N)cc1)C(=O)N2c1cc(Cl)c(F)c(Cl)c1)C(=O)NC1(c2ccccn2)CC1 [BI 1950]
inactive: [1] 100% | [2] 100% | [3] 98% | [4] 100% | [5] 95% | [6] 100% | [7] 92% | [8] 100% | [9] 89% | [10] 100% | [11] 100% | [12] 100% | [13] 100% | [14] 100% | [15] 100% | [16] 75% | [17] 100% | [18] 96% | [19] 100% | [20] 100% | [21] 100% | [22] 100% | [23] 92% | [24] 82% | [25] 100% | [26] 100% | [27] 100% | [28] 82% | [29] 99% | [30] 100% | [31] 88% | [32] 100% | [33] 100% | [34] 100% | [35] 94% | [36] 100% | [37] 83% | [38] 100% | [39] 97% | [40] 100% | [41] 100%

C[C@@]1(Cc2ccc(C#N)cc2)C(=O)N(c2cc(Cl)cc(Cl)c2)c2ncc(C(=O)NC3(c4nc(C5CCC5)no4)CC3)n21 [BI 9446]
inactive: [1] 96% | [2] 100% | [3] 100% | [4] 100% | [5] 86% | [6] 100% | [7] 100% | [8] 100% | [9] 100% | [10] 100% | [11] 100% | [12] 100% | [13] 94% | [14] 86% | [15] 84% | [16] 98% | [17] 100% | [18] 100% | [19] 100% | [20] 100% | [21] 100% | [22] 99% | [23] 92% | [24] 100% | [25] 100% | [26] 90% | [27] 100% | [28] 79% | [29] 100% | [30] 100% | [31] 83% | [32] 100% | [33] 100% | [34] 100% | [35] 86% | [36] 100% | [37] 100% | [38] 100% | [39] 100% | [40] 93% | [41] 100%
